Assay results as given in patent US20260258032A1, “TYROSINE KINASE 2 INHIBITORS AND USES THEREOF” (BIOGEN MA INC., priority 2022, published 2026).
Where a name gives a salt, the structure may show the parent alone.

What was measured:
[1] = biological target: T1, JH2 domain of human Tyk2 (Homo sapiens, UniProt P29597); test: JH2 biochemical assay (TR-FRET probe displacement); type: binding
T1 construct: 10×His-tagged TYK2 JH2 domain (amino acid 575-876)
Method in brief: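 A probe-displacement TR-FRET readout: compounds, tested in 3-fold, 10-point dilutions starting at […], compete with 2 nM tracer for 2 nM His-tagged JH2 (residues 575-876) detected by 0.1 nM Tb-anti-His over 60 min. IC50 comes from 4-parameter fits of normalized 520/495 nm ratios.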

[2] = test system: Tyk2 kinase activity on STAT4; test: pSTAT4 cell assay (MSD, NK92 cells); type: cell-based; conditions: compounds 1 hr
Method in brief: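 Compound treatment of starved NK92 cells ran 1 hr before a 15-minute, 30 ng/mL IL2 pulse; lysates went to an MSD anti-STAT4 antibody assay, with curves fitted by 4-parameter logistic model.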

[3] = test system: JAK2 kinase activity on STAT5; test: pSTAT5 cell assay (MSD, TF1 cells, IL-3 stimulated); type: cell-based; conditions: Homo sapiens, TF-1, compounds 1 hour, 30 ng/mL IL-3 for 15 minutes
Procedure: Compounds of the disclosure were assessed for their ability to inhibit the JAK2 kinase activity on STAT5 utilizing an MSD-platform plate-based assay format. TF1 cells natively expressing STAT5 and JAK2 were serum-starved to reduce background phosphorylation levels, then cells were treated with compounds of disclosure for 1 hour with a 10-point four-fold dilution series starting at 10 μM. Cells were then stimulated with 30 ng/mL IL-3 for 15 minutes. Cells were then lysed and pSTAT5 levels were quantitated using an MSD plate-based assay with anti-STAT5 antibodies. The data were normalized and the percent activity versus log concentration of compound was fitted with a 4-parameter logistic model to generate a curve and an IC50 value.

[4] = test system: JAK1 kinase activity on STAT3; test: pSTAT3 cell assay (MSD, TF1 cells, IL-6 stimulated); type: cell-based; conditions: Homo sapiens, TF-1, compounds 1 hour, 30 ng/mL IL-6 for 15 minutes
Procedure: The inhibitory potency of compounds of the disclosure against the JAK1 kinase activity on STAT3 was evaluated using an MSD-platform plate-based assay format. TF1 cells natively expressing STAT3 and JAK1 were serum-starved to reduce background phosphorylation levels, then cells were treated with compounds of the disclosure for 1 hour with a 10-point four-fold dilution series starting at 10 μM. Cells were then stimulated with 30 ng/mL interleukin 6 (IL-6) for 15 minutes. Cells were lysed and pSTAT3 levels were quantitated using an MSD plate-based assay with anti-STAT3 antibodies. The data were normalized and the percent activity versus log concentration of compound was fitted with a 4-parameter logistic model to generate IC50 curves.

T1 sequence (P29597 575-876): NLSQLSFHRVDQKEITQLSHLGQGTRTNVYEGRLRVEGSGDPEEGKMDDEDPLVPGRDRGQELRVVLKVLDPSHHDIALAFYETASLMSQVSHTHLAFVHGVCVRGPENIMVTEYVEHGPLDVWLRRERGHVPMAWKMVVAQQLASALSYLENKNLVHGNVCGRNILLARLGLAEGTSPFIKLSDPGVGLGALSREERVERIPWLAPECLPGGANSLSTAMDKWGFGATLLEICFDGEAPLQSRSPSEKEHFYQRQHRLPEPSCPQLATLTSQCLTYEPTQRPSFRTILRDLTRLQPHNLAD

SMILES	IC50 ([1]; JH2 biochemical assay)	IC50 ([2]; stimulated 15 minutes)	IC50 [3]	IC50 [4]	IC50 ([1]; TR-FRET probe displacement, JH2 domain of human Tyk2)	IC50 ([2]; then stimulated 15 minutes)
COc1cc(N2CC3(CC3)c3cnc(NC(C)=O)cc32)nc(C(C)(F)F)n1 [Example 1, N-(1′-(2-(1,1-difluoroethyl)-6-methoxypyrimidin-4-yl)-1′,2′-dihydrospiro[cyclopropane-1,3′-pyrrolo[3,2-c]pyridin]-6′-yl)acetamide]	≤ 0.01 µM	0.1 to 1 µM	≥ 1 µM	≥ 1 µM	–	–
COc1cc(C(C)(F)F)nc(N2CC3(CC3)c3cnc(NC(C)=O)cc32)n1 [Example 2, N-(1′-(4-(1,1-difluoroethyl)-6-methoxypyrimidin-2-yl)-1′,2′-dihydrospiro[cyclopropane-1,3′-pyrrolo[3,2-c]pyridin]-6′-yl)acetamide]	≤ 0.01 µM	0.1 to 1 µM	≥ 1 µM	≥ 1 µM	–	–
COc1cc(N2CC3(CC3)c3cnc(NC(C)=O)cc32)nc(C(C)(F)F)c1 [Example 9, N-(1′-(6-(1,1-difluoroethyl)-4-methoxypyridin-2-yl)-1′,2′-dihydrospiro[cyclopropane-1,3′-pyrrolo[3,2-c]pyridin]-6′-yl)acetamide]	≤ 0.01 µM	0.01 to 0.1 µM	≥ 1 µM	≥ 1 µM	–	–
CNc1cc(N2CC3(CC3)c3cnc(NC(C)=O)cc32)nc(C(C)(F)F)n1 [Example 10, N-(1′-(2-(1,1-difluoroethyl)-6-(methylamino)pyrimidin-4-yl)-1′,2′-dihydrospiro[cyclopropane-1,3′-pyrrolo[3,2-c]pyridin]-6′-yl)acetamide]	≤ 0.01 µM	0.01 to 0.1 µM	≥ 1 µM	≥ 1 µM	–	–
CCc1cc(N2CC3(CC3)c3cnc(NC(C)=O)cc32)nc(C(C)(F)F)n1 [Example 11, N-(1′-(2-(1,1-difluoroethyl)-6-ethylpyrimidin-4-yl)-1′,2′-dihydrospiro[cyclopropane-1,3′-pyrrolo[3,2-c]pyridin]-6′-yl)acetamide]	≤ 0.01 µM	0.01 to 0.1 µM	≥ 1 µM	≥ 1 µM	–	–
CC(=O)Nc1cc2c(cn1)C1(CC1)CN2c1cccc(C(C)(F)F)n1 [Example 12, N-(1′-(6-(1,1-difluoroethyl)pyridin-2-yl)-1′,2′-dihydrospiro[cyclopropane-1,3′-pyrrolo[3,2-c]pyridin]-6′-yl)acetamide]	≤ 0.01 µM	0.01 to 0.1 µM	≥ 1 µM	≥ 1 µM	–	–
CC(=O)Nc1cc2c(cn1)C1(CC1)CN2c1ccnc(C(C)(F)F)n1 [Example 13, N-(1′-(2-(1,1-difluoroethyl)pyrimidin-4-yl)-1′,2′-dihydrospiro[cyclopropane-1,3′-pyrrolo[3,2-c]pyridin]-6′-yl)acetamide]	0.01 to 0.1 µM	0.1 to 1 µM	≥ 1 µM	≥ 1 µM	–	–
CC(=O)Nc1cc2c(cn1)C1(CC1)CN2c1nccc(C(C)(F)F)n1 [Example 14, N-(1′-(4-(1,1-difluoroethyl)pyrimidin-2-yl)-1′,2′-dihydrospiro[cyclopropane-1,3′-pyrrolo[3,2-c]pyridin]-6′-yl)acetamide]	0.01 to 0.1 µM	0.1 to 1 µM	≥ 1 µM	≥ 1 µM	–	–
CC(=O)Nc1cc2c(cn1)C1(CC1)CN2c1cccc(C2CCOC2)n1 (stereo not shown) [Example 16, N-(1′-(6-(tetrahydrofuran-3-yl)pyridin-2-yl)-1′,2′-dihydrospiro[cyclopropane-1,3′-pyrrolo[3,2-c]pyridin]-6′-yl)acetamide]	≤ 0.01 µM	0.01 to 0.1 µM	≥ 1 µM	≥ 1 µM	–	–
CC(=O)Nc1cc2c(cn1)C1(CC1)CN2c1ccnc(C(C)(C)F)n1 [Example 17, N-(1′-(2-(2-fluoropropan-2-yl)pyrimidin-4-yl)-1′,2′-dihydrospiro[cyclopropane-1,3′-pyrrolo[3,2-c]pyridin]-6′-yl)acetamide]	≤ 0.01 µM	0.1 to 1 µM	≥ 1 µM	≥ 1 µM	–	–
COC1(c2cccc(N3CC4(CC4)c4cnc(NC(C)=O)cc43)n2)CCOC1 (stereo not shown) [Example 18, N-(1′-(6-(3-methoxytetrahydrofuran-3-yl)pyridin-2-y1)-1′,2′-dihydrospiro[cyclopropane-1,3′-pyrrolo[3,2-c]pyridin]-6′-yl)acetamide]	≤ 0.01 µM	0.01 to 0.1 µM	≥ 1 µM	≥ 1 µM	–	–
CC(=O)Nc1cc2c(cn1)C1(CC1)CN2c1cccc(C2(O)CCOC2)n1 (stereo not shown) [Example 19, N-(1′-(6-(3-hydroxytetrahydrofuran-3-yl)pyridin-2-yl)-1′,2′-dihydrospiro[cyclopropane-1,3′-pyrrolo[3,2-c]pyridin]-6′-yl)acetamide]	≤ 0.01 µM	0.01 to 0.1 µM	≥ 1 µM	≥ 1 µM	–	–
CC(=O)Nc1cc2c(cn1)C1(CC1)CN2c1cc(C2CC2)nc(C(C)(F)F)n1 [Example 21, N-(1′-(6-cyclopropyl-2-(1,1-difluoroethyl)pyrimidin-4-yl)-1′,2′-dihydrospiro[cyclopropane-1,3′-pyrrolo[3,2-c]pyridin]-6′-yl)acetamide]	≤ 0.01 µM	0.01 to 0.1 µM	≥ 1 µM	≥ 1 µM	–	–
CC(=O)Nc1cc2c(cn1)CCN2c1cccc(C(C)(F)F)n1 [Example 32, N-(1-(6-(1,1-difluoroethyl)pyridin-2-yl)-2,3-dihydro-1H-pyrrolo[3,2-c]pyridin-6-yl)acetamide]	0.01 to 0.1 µM	≥ 1 µM	≥ 1 µM	≥ 1 µM	–	–
CC(=O)Nc1cc2c(cn1)C1(CC1C)CN2c1ccnc(C(C)(F)F)n1 (stereo not shown) [Example 37, N-(1′-(2-(1,1-difluoroethyl)pyrimidin-4-yl)-2-methyl-1′,2′-dihydrospiro[cyclopropane-1,3′-pyrrolo[3,2-c]pyridin]-6′-yl)acetamide]	0.01 to 0.1 µM	≥ 1 µM	≥ 1 µM	≥ 1 µM	–	–
CC(=O)Nc1cc2c(cn1)C(C)(C)CN2c1ccnc(C(C)(F)F)n1 [Example 38, N-(1-(2-(1,1-difluoroethyl)pyrimidin-4-yl)-3,3-dimethyl-2,3-dihydro-1H-pyrrolo[3,2-c]pyridin-6-yl)acetamide]	≥ 1 µM	≥ 1 µM	≥ 1 µM	≥ 1 µM	–	–
CC(=O)Nc1cc2c(cn1)C(C)(C)CN2c1nccc(C(C)(F)F)n1 [Example 39, N-(1-(4-(1,1-difluoroethyl)pyrimidin-2-yl)-3,3-dimethyl-2,3-dihydro-1H-pyrrolo[3,2-c]pyridin-6-yl)acetamide]	≥ 1 µM	≥ 1 µM	≥ 1 µM	≥ 1 µM	–	–
CC(=O)Nc1cc2c(cn1)C1(CCN(C)CC1)CN2c1cccc(C(C)(F)F)n1 [Example 276, N-(1′-(6-(1,1-difluoroethyl)pyridin-2-yl)-1-methyl-1′,2′-dihydrospiro[piperidine-4,3′-pyrrolo[3,2-c]pyridin]-6′-yl)acetamide trifluoroacetate]	≥ 1 µM	–	≥ 1 µM	≥ 1 µM	–	–
CC(=O)Nc1cc2c(cn1)C1(CC1)CN2c1cc(C)nc(N2CC(CC(C)C)C2)n1 [Example 410, N-(1′-(2-(3-isobutylazetidin-1-yl)-6-methylpyrimidin-4-yl)-1′,2′-dihydrospiro[cyclopropane-1,3′-pyrrolo[3,2-c]pyridin]-6′-yl)acetamide trifluoroacetate]	–	–	–	–	≥ 1 µM	0.1 to 1 µM
